Assay results: patent EP0199170A1, “Composition and method for providing cytoprotection of the gastric mucosa in a mammal receiving aspirin” (priority 1985, dated 1986)
Where two headings read alike, the source gives them in different places. Marks after values point to notes of the source that are not given here.

What was measured:
[1] = system: Aspirin-induced Gastric Mucosal Erosions; experiment: Aspirin-induced hemorrhagic gastric erosions in fasted rats, lesion number and area by computerized planimetry; type: in vivo, Sprague-Dawley rats; conditions: for gastric cytoprotection: coadministered with acidified aspirin 10 mg/100 g, fasted rats; for Aspirin-induced Gastric Mucosal Erosions, percentage of glandular stomach area / Aspirin-induced Gastric Mucosal Erosions, total number of erosions: sacrificed 1 hour after; for Aspirin-induced Gastric Mucosal Erosions, percentage of glandular stomach area: dose 0 group 1.42; for Aspirin-induced Gastric Mucosal Erosions, total number of erosions: dose 0 group 11.90
Protocol: Fasted Sprague-Dwaley female rats were given intragastrically (ig) at least four different doses ranging from 1-30 mg/100 g. body weight of sodium thiosulfate either 30 minutes before or parallel with intragastric administration of 10 mg/100 g body weight of acidified aspirin. Rats were killed one hour after aspirin administration and the number of hemorrhagic gastric erosions (or_ lesions) was determined and the area of erosion was measured by computerized planimetry.
Fasted Sprague-Dawley Female rats were given intragastrically (ig) at least three different doses ranging from 5-30 mg/100 g body weight of 3,3'-thiobis[propanoic acid] either 30 minutes before or parallel with intragastric administration of 10 mg/100 g body weight of acidified aspirin. Rats were killed one hour after aspirin administration and the number of hemorrhagic gastric erosions (or lesions) was determined and the area of erosion was measured by computerized planimetry. 3,3'-Thiobis[propanoic acid]
All of the experiments in this example were performed in female Sprague-Dawley rats having an initial body weight of 150-200 g. […] Before the administration of aspirin, the rats were fasted over night. […] The extent of gastric mucosal injury was evaluated by a Zeiss stereomicroscope coupled with a computerized planimeter which allowed both surface measurement and counting of lesions, according to the published method of Sandor Szabo et al entitled "A Quantitative Method for Assessing the Extent of Experimental Gastric Erosions and Ulcers", J. Pharmacological Methods 13, 59-66, 1985. Light microscopy of formalin-fixed sections was also performed.
Aspirin was suspended in 1% methylcellulose dissolved in 200 mM HCI and was administered at 10 mg/100 g body weight by gavage with rubber tube (Rusch No. 8) and rats were killed one hour later. The study design is presented as follows in Table A.
In the initial experiment, doses of sodium thiosulfate as its pentahydrate were given per os - (p.o.) either 30 minutes or 30 seconds before aspirin. The. 30 second pretreatment is virtually a parallel administration of the compounds.

[2] = system: Adjuvant Arthritis In Rats; experiment: Adjuvant-induced arthritis assay (chronic inflammation, injected hind paw volume); conditions: for influence on the antiinflammatory efficacy of aspirin: adjuvant-induced arthritis assay, coadministered with aspirin; for inhibition at 150 mg/kg: Rattus norvegicus, po, 384 h; for Injected Hind Paw Volume ml + S.E.: adjuvant control 5.57±0.4, normal control 1.89±0.03
Protocol: 300 mg/kg for 16 days coadministered with 150 mg/kg of aspirin in an adjuvant-induced arthritis assay [C.J. Pearson, "Experimental Joint Disease", J. Chron.

male Sprague-Dawley rats = experiment: Acute oral toxicity in rats; conditions: for toxicity: summary statement
Text: Sodium thiosulfate (anhydrous) was given as a single oral dose to male Sprague-Dawley rats weighing approximately 116-140 g to determine its approximate acute oral LD50. The rats were fasted for four hours before medication, observed for seven days following medication and all surviving rats sacrificed and necropsied at the completion of the study.

Aspirin Lesions = experiment: Gastric cytoprotection against aspirin lesions in adjuvant arthritic rats; type: in vivo, Sprague-Dawley rats; conditions: for effectiveness as cytoprotectant against aspirin-induced gastric lesions in arthritic rats: coadministered with aspirin in the adjuvant-induced arthritis assay; for Area of Lesion (mm^2), Mean + S.E. / No. of Lesions, Mean + S.E. / No. of Rats with Lesions: single daily oral administration for 16 days
Protocol: 300 mg/kg for 16 days coadministered with 150 mg/kg of aspirin in an adjuvant-induced arthritis assay [C.J. Pearson, "Experimental Joint Disease", J. Chron. […] At the completion of the assay-the stomachs were excised and examined for the presence or absence of lesions.

[3] = system: Acute Inflammation In Rats; experiment: Carrageenin model of acute inflammation (paw edema); type: in vivo, Sprague-Dawley rats; conditions: for inhibition at 100 mg/kg: Rattus norvegicus; for Mean Paw Edema, ml+S.E.: control 1.16±0.1, 9 rats per group
Protocol: Male Sprague-Dawley rats (initial weight of about 200 g.) received a single oral dose of sodium thiosulfate (anhydrous) at either 30, 100 or 300 mg/kg coadministered with 100 mg/kg of aspirin in the carrageenin model of acute inflammation (paw edema) [C.A. Winter et al, "Carrageenin-lnduced Edema in Hind Paw of the Rat as an Assay for Anti-Inflammatory Drugs, "Proc. Soc. Exptl.

[4] = Table G: 150 mg/kg each, single oral daily doses for 16 days
[5] = Table H: aspirin 150 mg/kg, Na thiosulfate 300 mg/kg, single oral daily doses for 16 days
[6] = Table D: 150 mg/kg each, controls 0
[7] = Table D: 150 mg/kg each, controls 0/10
[8] = Table D: 150 mg/kg each, controls 0, listed as aspirin
[9] = Table E: aspirin 150 mg/kg, Na thiosulfate 300 mg/kg, controls 0.04±0.04
[10] = Table E: aspirin 150 mg/kg, Na thiosulfate 300 mg/kg, controls 0.1±0.1
[11] = Table E: aspirin 150 mg/kg, Na thiosulfate 300 mg/kg, controls 1/10
[12] = parallel administration with aspirin 10 mg/100 g, converted from mg/100 g pentahydrate

Compound | gastric cytoprotection ([1]; intragastric) | influence on the antiinflammatory efficacy of aspirin [2] | toxicity (male Sprague-Dawley rats) | effectiveness as cytoprotectant against aspirin-induced gastric lesions in arthritic rats (Aspirin Lesions) | Mean Paw Edema, ml+S.E. ([3]; single oral dose 100 mg/kg) | Injected Hind Paw Volume ml + S.E. [2, 4] | Area of Lesion (mm^2), Mean + S.E. (Aspirin Lesions; [6]) | No. of Lesions, Mean + S.E. (Aspirin Lesions; [6]) | No. of Rats with Lesions (Aspirin Lesions; [7]) | Area of Lesion (mm^2), Mean + S.E. (Aspirin Lesions; [9]) | No. of Lesions, Mean + S.E. (Aspirin Lesions; [10]) | No. of Rats with Lesions (Aspirin Lesions; [11]) | minimum statistically significant effective dose (MED) [1, 12] | also measured
O=C(O)CCSCCC(=O)O [TBPA, 3,3'-Thiobis[propanoic acid]] | significant (p<0.01) gastric cytoprotection | did not reduce the antiinflammatory efficacy of ASA | low order of toxicity | effectiveness of TBPA as cytoprotectant against ASA-induced gastric lesions was also demonstrated |  |  |  |  |  |  |  |  |  | minimal effective dose ([1]; Rattus norvegicus, po, parallel administration with acidified aspirin 10 mg/100 g, intragastric, rats, area and number of lesions, read-out: minimum statistically significant effective dose (MED)): ~300 mg/kg
CCCCC1C(=O)N(c2ccccc2)N(c2ccccc2)C1=O [Phenylbutazone, phenylbutazone] |  |  |  |  | 0.41 ± 0.03 mL |  |  |  |  |  |  |  |  | inhibition at 100 mg/kg ([3]; single oral dose 100 mg/kg, paw edema vs control, read-out: % Inhibition): 65%
CC(=O)Oc1ccccc1C(=O)O [Aspirin, aspirin] |  |  |  |  | 0.65 ± 0.1 mL | 3.31 ± 0.2 mL | 16.02±3.82 mm^2 | 15.2±2.9 | 10/10 | 11.61±4.42 mm^2 | 25.7±4.9 | 9/9 |  | inhibition at 150 mg/kg [2, 4]: 61%; inhibition at 150 mg/kg [2, 5]: 43%; Area of Lesion (mm^2), Mean + S.E. (Aspirin Lesions; [8]): 16.02 mm^2; No. of Lesions, Mean + S.E. (Aspirin Lesions; [8]): 15.2; Area of Lesion (mm^2), Mean + S.E. (Aspirin Lesions; Table E: aspirin 150 mg/kg, Na thiosulfate 300 mg/kg, controls 0.04±0.04, listed as aspirin): 11.61 mm^2; No. of Lesions, Mean + S.E. (Aspirin Lesions; Table E: aspirin 150 mg/kg, Na thiosulfate 300 mg/kg, controls 0.1±0.1, listed as aspirin): 25.7; inhibition at 100 mg/kg ([3]; po): 44%
sodium thiosulfate | significant (p<0.01) gastric cytoprotection | did not reduce the antiinflammatory efficacy of aspirin | low order of toxicity |  |  |  |  |  |  |  |  |  |  | 
anhydrous sodium thiosulfate [Na thiosulfate] |  | did not influence the anti-inflammatory efficacy of aspirin | low order of acute toxicity | effective in reducing the number and size of lesions |  | 5.21 ± 0.5 mL | 0.12±0.12 mm^2 | 0.4±0.4 | 1/5 | 0 mm^2 | 0 | 0/5 | about 32 mg/kg | minimum statistically significant effective dose, as anhydrous form ([1]; coadministered with aspirin 10 mg/100 g, anhydrous equivalent of the pentahydrate dose): about 3 mg/100 g; effect on the development of arthritis ([2]; 150 or 300 mg/kg alone, single oral daily doses for 16 days): did not demonstrate an effect on the development of arthritis; % Inhibition [2, 4]: 10%; % Inhibition [2, 5]: 2%; gastric irritancy (male Sprague-Dawley rats; at the very high dose level of 7,000 mg/kg, single oral dose): gastric irritancy was observed; approximate acute oral LD50 (ALDsD) (male Sprague-Dawley rats; single oral dose, male rats fasted four hours, observed 7 days): 7,000 mg/kg
sodium thiosulfate pentahydrate |  |  |  |  |  |  |  |  |  |  |  |  | about 50 mg/kg | protection against aspirin-induced gastric erosions ([1]; given p.o. 30 minutes before aspirin 10 mg/100 g): dose-dependent protection; minimum statistically significant effective dose (MED) ([1]; parallel administration with acidified aspirin 10 mg/100 g, intragastric, rats, area and number of lesions, listed as sodium thiosulfate as its pentahydrate): about 5 mg/100 g; minimum statistically significant effective dose (MED) ([1]; parallel administration with aspirin 10 mg/100 g, converted from mg/100 g): about 201 µmol/kg; Aspirin-induced Gastric Mucosal Erosions, percentage of glandular stomach area ([1]; single oral dose 1.0 mg/100 g body weight, aspirin concomitantly 10 mg/100 g in acidified 1% methylcellulose): 0.89 percentage of glandular stomach area; Aspirin-induced Gastric Mucosal Erosions, total number of erosions ([1]; single oral dose 1.0 mg/100 g body weight, aspirin concomitantly 10 mg/100 g): 6.67; Aspirin-induced Gastric Mucosal Erosions, percentage of glandular stomach area ([1]; single oral dose 5.0 mg/100 g body weight, aspirin concomitantly 10 mg/100 g, p<0.01): 0.18* percentage of glandular stomach area; Aspirin-induced Gastric Mucosal Erosions, total number of erosions ([1]; single oral dose 5.0 mg/100 g body weight, aspirin concomitantly 10 mg/100 g, p≤0.01): 1.56*; Aspirin-induced Gastric Mucosal Erosions, percentage of glandular stomach area ([1]; single oral dose 10.0 mg/100 g body weight, aspirin concomitantly 10 mg/100 g, p<0.01): 0.27* percentage of glandular stomach area; Aspirin-induced Gastric Mucosal Erosions, total number of erosions ([1]; single oral dose 10.0 mg/100 g body weight, aspirin concomitantly 10 mg/100 g, p≤0.01): 1.78*; Aspirin-induced Gastric Mucosal Erosions, percentage of glandular stomach area ([1]; single oral dose 30.0 mg/100 g body weight, aspirin concomitantly 10 mg/100 g, p<0.01): 0* percentage of glandular stomach area; Aspirin-induced Gastric Mucosal Erosions, total number of erosions ([1]; single oral dose 30.0 mg/100 g body weight, aspirin concomitantly 10 mg/100 g, p≤0.01): 0*
